Test results from patent publication US6589971B1, “Bis-benzazoles and their use as antineoplastic agents” (The Queens University of Belfast, priority 1999, dated 2003).
pIC50, pKd: −log10 of the molar value. Values joined by “and” are separate entries in the source; they are usually repeats but may differ in a detail not shown here. Identical values can stand only once.

Tests used:
[1] = test system: A/T sites of a natural DNA fragment; experiment: DNase I footprinting with a natural DNA fragment; assay type: binding; settings: for DNA site preference: natural DNA fragment
Source text: The ability of the head-to-head bis-benzimidazoles to discriminate between the 136 possible tetranucleotide sequences may be further enhanced by flanking sequence preferences. These remain to be systematically explored.

A2780 = experiment: Cytotoxicity (growth inhibition), 96 hour exposure, ovarian cell line panel; settings: read-out: Cytotoxicity IC50, A2780
Protocol: (§1) Assessment of growth inhibition was performed in a small panel of (e.g.) human ovarian carcinoma cell lines using the Sulforhodamine B (SRB assay) (Kelland et al, Cancer Research 54, 5618-5622 (1994). The cell lines grew as monolayers in Dulbecco's Modified Eagle's medium containing 10% foetal bovine serum (Imperial Laboratories, Andover, UK) supplemented with 2 mM glutamine and 0.5 μg/ml hydrocortisone in 6% CO2/94% air. The compound to be tested was dissolved in 10% dimethylsulfoxide. Cells were seeded into 96-well microtitre plates at 3000-5000 per well and allowed to attach overnight. Serial dilutions of drug in growth medium were then added to quadruplicate wells (with 8 control untreated wells) and left to incubate under normal growth conditions for 96 hr, unless otherwise stated. The medium was then removed and wells fixed with 10% trichloroacetic acid and stained with 0.4% SRB in 1% acetic acid as described previously (Kelland et al ref). Basic amino acid content in each well was then measured by solubilizing the bound SRB with 10 mM Tris and using a Titertek Multiscan MCC/340 MKII plate reader set at 540 nm. Mean absorbance was then expressed as a percentage of the control untreated well absorbance and plotted vs drug concentration. Comparisons were made in terms of IC50 values, (the concentration that reduced the mean absorbance to 50% of those in control wells) and Resistance Factors (RF, the IC50 in a resistant subline vs its parent line).

A2780-PT^R = experiment: as above; settings: read-out: Cytotoxicity IC50, A2780-PT^R
Protocol: as §1

CH1 = experiment: as above; settings: read-out: Cytotoxicity IC50, CH1
Protocol: as §1

SKOV-3 = experiment: as above; settings: read-out: Cytotoxicity IC50, SKOV-3, SKOV-3 ovarian cell line
Protocol: as §1

MCF-7 (breast) = experiment: Growth inhibition, carcinoma cell lines (MTT assay or cell counting); assay type: cell-based; settings: 96 hour exposure, repeat determinations
Protocol: Compounds 8 and 13 were then tested more extensively against a range of carcinoma cell lines: MCF-7 (breast,); RKO and H630 (colon); A2780 and OAW42 (ovary) and H838 (lung).
Figures in bold were determined using cell counting method, all other values by the MTT assay.
The growth inhibition assays reported above were carried out using standard techniques, some examples of which are detailed below.

[2] = test system: ovarian carcinoma cell lines; experiment: Cytotoxicity across the group of four ovarian carcinoma cell lines; assay type: cell-based, human; settings: versus compounds 8 and 9; in three out of the four lines
Protocol: Assessment of growth inhibition was performed in a small panel of (e.g.) human ovarian carcinoma cell lines using the Sulforhodamine B (SRB assay) (Kelland et al, Cancer Research 54, 5618-5622 (1994). The cell lines grew as monolayers in Dulbecco's Modified Eagle's medium containing 10% foetal bovine serum (Imperial Laboratories, Andover, UK) supplemented with 2 mM glutamine and 0.5 μg/ml hydrocortisone in 6% CO2/94% air. The compound to be tested was dissolved in 10% dimethylsulfoxide. Cells were seeded into 96-well microtitre plates at 3000-5000 per well and allowed to attach overnight. Serial dilutions of drug in growth medium were then added to quadruplicate wells (with 8 control untreated wells) and left to incubate under normal growth conditions for 96 hr, unless otherwise stated. The medium was then removed and wells fixed with 10% trichloroacetic acid and stained with 0.4% SRB in 1% acetic acid as described previously (Kelland et al ref). Basic amino acid content in each well was then measured by solubilizing the bound SRB with 10 mM Tris and using a Titertek Multiscan MCC/340 MKII plate reader set at 540 nm. Mean absorbance was then expressed as a percentage of the control untreated well absorbance and plotted vs drug concentration. […]

[3] = test system: ovarian lines in the NCI 60-cell line panel; experiment: NCI 60-cell line panel; assay type: cell-based; settings: several ovarian lines
[4] = test system: transcription at A/T sites; experiment: In vitro transcription assay; assay type: biochemical
Source text: Compound (13) has been examined in an in vitro transcription assay. […] In addition, compound (13) inhibited transcription at least 10-fold more efficiently than compound (9), consistent with its increased cytoxicity. It is thus tempting to speculate that the activity of (13) in vitro and in vivo may be related to its potent ability to inhibit transcription specifically at a small sub-set of A/T sites.

SMILES	DNA site preference [1]	pIC50 (A2780)	pIC50 (A2780-PT^R)	pIC50 (CH1)	pIC50 (SKOV-3)	pIC50 (MCF-7 (breast))	affinity for 5′-TATA sites ([1]; 5′-TATA sites)	pKd ([1]; quantitative DNase I footprinting, 5′-AATT site, read-out: affinity for the 5′-AATT site)	binding to AT-sites, fold better than compound (9) ([1]; relative to compound (9))	cytotoxic activity, fold more active than the others [2]	activity in ovarian lines of NCI 60-cell line panel [3]	inhibition of transcription ([4]; at a number of A/T sites)	inhibition of transcription, fold more efficient than compound (9) ([4]; relative to compound (9))
Oc1ccc(-c2nc3cc(-c4ccc5[nH]c(-c6ccc(O)cc6)nc5c4)ccc3[nH]2)cc1 [Compound 9, 4′,4′-[5,5-bi-1H-Benzimidazole]-2,2-diylbis-phenol]	interact preferentially with some A/T sites	5.37	5.57	5.98	4.80								
CN1CCN(c2ccc3[nH]c(-c4ccc5[nH]c(-c6ccc(O)cc6)nc5c4)nc3c2)CC1 [Hoechst 33258, reference compound]		4.92	5.02	4.58	< 4.00								
CN(C)CCCOc1ccc(-c2nc3cc(-c4ccc5[nH]c(-c6ccc(OCCCN(C)C)cc6)nc5c4)ccc3[nH]2)cc1 [Compound 13, 2,2-bis-[4′-(3″-Dimethylamino-1″-propyloxy)phenyl]-5,5-bi-1H-benzimidazole]	interact preferentially with some A/T sites	6.63	6.94	6.62	6.43	7.37 and 7.16	relatively low affinity	7.52	7-10 fold	over 10 fold	significant activity	effectively inhibits transcription at a number of A/T sites	at least 10 fold
